In US10517889B2, “Modulators of SMAD7 expression” (Ionis Pharmaceuticals, Inc., priority 2017, dated 2019):
Strand notation (5' to 3'): a small letter for the sugar, then the base; units joined by * are phosphorothioate-linked, units joined directly phosphodiester-linked; [ ] holds rarer units or linkages, { } end groups; capitals alone tell only the bases. k = constrained ethyl (cEt); [5mC] = 5-methylcytosine; d = 2'-deoxy (DNA)

test system: human SMAD7 mRNA; assay: Antisense inhibition of human SMAD7 mRNA expression in Hep3B cells by 3-10-3 cEt gapmers, 10,000 nM, electroporation (Example 2); format: cell-based; settings: Hep3B cells, electroporation with 10,000 nM antisense oligonucleotide, approximately 24 hours, primer probe set RTS5062, relative to untreated control cells
How it was run: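 Hep3B cells (20,000/well) were electroporated with 10,000 nM 3-10-3 cEt gapmer (16-mer, phosphorothioate, 5-methylcytosines) and harvested after about 24 h. SMAD7 mRNA quantified by RT-qPCR with primer probe set RTS5062, normalized to total RNA by RiboGreen; percent inhibition relative to untreated cells.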

Substance	% Inhibition [%]	% inhibition of SMAD7 mRNA expression [%]
799158 (antisense kT*kA*kT*dG*dA*dG*dT*dT*dG*dT*dA*dG*dA*kA*kG*kA) [compound 799158]	33	
799160 (antisense kA*k[5mC]*kG*dA*dG*dT*dG*dT*dA*dT*dG*dA*dG*kT*kT*kG) [compound 799160]	61	
799161 (antisense k[5mC]*kA*kT*dA*d[5mC]*dG*dA*dG*dT*dG*dT*dA*dT*kG*kA*kG) [compound 799161]	29	
799162 (antisense kT*kA*kT*d[5mC]*dA*dT*dA*d[5mC]*dG*dA*dG*dT*dG*kT*kA*kT) [compound 799162]	36	
799163 (antisense kA*kA*kG*dT*dA*dT*d[5mC]*dA*dT*dA*d[5mC]*dG*dA*kG*kT*kG) [compound 799163]		45
799164 (antisense kT*k[5mC]*kG*dA*dA*dG*dT*dA*dT*d[5mC]*dA*dT*dA*k[5mC]*kG*kA) [compound 799164]		37
799165 (antisense kG*kT*kG*dT*d[5mC]*dG*dA*dA*dG*dT*dA*dT*d[5mC]*kA*kT*kA) [compound 799165]		42
799166 (antisense kA*kA*k[5mC]*dA*dG*dT*dG*dT*d[5mC]*dG*dA*dA*dG*kT*kA*kT) [compound 799166]		21
799167 (antisense kA*kA*kG*dA*dA*d[5mC]*dA*dG*dT*dG*dT*d[5mC]*dG*kA*kA*kG) [compound 799167]		58
799169 (antisense kT*kT*kG*dA*dG*d[5mC]*dT*dA*dA*dG*dA*dA*d[5mC]*kA*kG*kT) [compound 799169]		0
799170 (antisense kT*k[5mC]*kA*dT*dT*dG*dA*dG*d[5mC]*dT*dA*dA*dG*kA*kA*k[5mC]) [compound 799170]		17
799171 (antisense kT*kG*k[5mC]*dT*d[5mC]*dA*dT*dT*dG*dA*dG*d[5mC]*dT*kA*kA*kG) [compound 799171]		30
799172 (antisense kA*kA*k[5mC]*dA*dT*dG*d[5mC]*dT*d[5mC]*dA*dT*dT*dG*kA*kG*k[5mC]) [compound 799172]		4
799173 (antisense k[5mC]*kT*kA*dA*dA*d[5mC]*dA*dT*dG*d[5mC]*dT*d[5mC]*dA*kT*kT*kG) [compound 799173]	18	
799174 (antisense kA*kG*kT*d[5mC]*dT*dA*dA*dA*d[5mC]*dA*dT*dG*d[5mC]*kT*k[5mC]*kA) [compound 799174]	42	
799175 (antisense kT*kA*kA*dA*dG*dT*d[5mC]*dT*dA*dA*dA*d[5mC]*dA*kT*kG*k[5mC]) [compound 799175]	0	
799176 (antisense kT*kG*kT*dT*dA*dA*dA*dG*dT*d[5mC]*dT*dA*dA*kA*k[5mC]*kA) [compound 799176]	0	
799177 (antisense kT*kT*kA*dT*dG*dT*dT*dA*dA*dA*dG*dT*d[5mC]*kT*kA*kA) [compound 799177]	0	
799178 (antisense kA*kG*k[5mC]*dT*dT*dA*dT*dG*dT*dT*dA*dA*dA*kG*kT*k[5mC]) [compound 799178]	34	
799179 (antisense kA*kA*kT*dA*dG*d[5mC]*dT*dT*dA*dT*dG*dT*dT*kA*kA*kA) [compound 799179]	0	
799180 (antisense kG*kA*kA*dA*dA*dA*dT*dA*dG*d[5mC]*dT*dT*dA*kT*kG*kT) [compound 799180]	20	
799181 (antisense kG*kT*kT*dA*dG*dA*dA*dA*dA*dA*dT*dA*dG*k[5mC]*kT*kT) [compound 799181]	37	
799182 (antisense kG*kT*kA*dG*dT*dT*dA*dG*dA*dA*dA*dA*dA*kT*kA*kG) [compound 799182]	20	
799183 (antisense k[5mC]*kT*kT*dT*dG*dT*dA*dG*dT*dT*dA*dG*dA*kA*kA*kA) [compound 799183]		0
799185 (antisense kT*kT*kA*dA*dA*d[5mC]*d[5mC]*dT*dT*dT*dG*dT*dA*kG*kT*kT) [compound 799185]		0
799186 (antisense k[5mC]*kT*kT*dG*dT*dT*d[5mC]*dA*dT*dT*dT*dA*dA*kA*k[5mC]*k[5mC]) [compound 799186]		31

Substance	% Inhibition [%]	% inhibition of SMAD7 mRNA expression [%]
799187 (antisense k[5mC]*kT*kT*d[5mC]*dT*d[5mC]*dT*dT*dG*dT*dT*d[5mC]*dA*kT*kT*kT) [compound 799187]		17
799188 (antisense kT*kG*k[5mC]*dT*dT*d[5mC]*dT*d[5mC]*dT*dT*dG*dT*dT*k[5mC]*kA*kT) [compound 799188]		43
799189 (antisense kA*kA*kT*dG*d[5mC]*dT*dT*d[5mC]*dT*d[5mC]*dT*dT*dG*kT*kT*k[5mC]) [compound 799189]		33
799190 (antisense kA*kG*kA*dA*dT*dG*d[5mC]*dT*dT*d[5mC]*dT*d[5mC]*dT*kT*kG*kT) [compound 799190]		61
799191 (antisense kA*kT*kG*dA*dG*dA*dA*dT*dG*d[5mC]*dT*dT*d[5mC]*kT*k[5mC]*kT) [compound 799191]	26	
799192 (antisense kT*kT*kT*d[5mC]*d[5mC]*dA*dA*dT*dG*dA*dG*dA*dA*kT*kG*k[5mC]) [compound 799192]	60	
799193 (antisense kT*kA*kA*dA*dT*dT*dT*d[5mC]*d[5mC]*dA*dA*dT*dG*kA*kG*kA) [compound 799193]	43	
799194 (antisense kT*kG*k[5mC]*dT*dA*dA*dA*dT*dT*dT*d[5mC]*d[5mC]*dA*kA*kT*kG) [compound 799194]	42	
799195 (antisense k[5mC]*kA*kA*dT*dG*d[5mC]*dT*dA*dA*dA*dT*dT*dT*k[5mC]*k[5mC]*kA) [compound 799195]	43	
799196 (antisense kG*k[5mC]*kA*d[5mC]*dT*dA*d[5mC]*dA*dA*dT*dG*d[5mC]*dT*kA*kA*kA) [compound 799196]	47	
799197 (antisense k[5mC]*kT*k[5mC]*dA*dA*dA*dG*d[5mC]*dA*d[5mC]*dT*dA*d[5mC]*kA*kA*kT) [compound 799197]		34
799198 (antisense kG*kT*k[5mC]*d[5mC]*dT*dT*dT*d[5mC]*dT*d[5mC]*dT*d[5mC]*dT*k[5mC]*kA*kA) [compound 799198]		17
799199 (antisense kG*kG*kA*dG*dT*d[5mC]*d[5mC]*dT*dT*dT*d[5mC]*dT*d[5mC]*kT*k[5mC]*kT) [compound 799199]		24
799200 (antisense kT*k[5mC]*kA*dG*dG*dA*dG*dT*d[5mC]*d[5mC]*dT*dT*dT*k[5mC]*kT*k[5mC]) [compound 799200]		69
799201 (antisense kT*kT*kT*dT*d[5mC]*dA*dG*dG*dA*dG*dT*d[5mC]*d[5mC]*kT*kT*kT) [compound 799201]		38
799202 (antisense kT*kT*kT*dT*dT*dT*dT*d[5mC]*dA*dG*dG*dA*dG*kT*k[5mC]*k[5mC]) [compound 799202]		33
799203 (antisense kG*kG*kT*dT*dT*dT*dT*dT*dT*dT*d[5mC]*dA*dG*kG*kA*kG) [compound 799203]		56
799204 (antisense k[5mC]*kT*k[5mC]*dA*dG*dG*dT*dT*dT*dT*dT*dT*dT*kT*k[5mC]*kA) [compound 799204]		36
799205 (antisense kT*kA*kA*dA*dT*d[5mC]*dT*d[5mC]*dA*dG*dG*dT*dT*kT*kT*kT) [compound 799205]		54
799206 (kT*kA*kT*dA*dT*dT*dT*dA*d[5mC]*dA*dA*dG*dT*kA*kA*kT; antisense) [compound 799206]	0	
799207 (k[5mC]*kT*kT*dT*dA*dT*dA*dT*dT*dT*dA*d[5mC]*dA*kA*kG*kT; antisense) [compound 799207]	0	
799208 (kT*kG*kA*dT*dG*d[5mC]*dT*dT*dA*dT*dA*dA*dA*kA*k[5mC]*kG; antisense) [compound 799208]	15	
799209 (kT*kA*kA*dT*dG*dA*dT*dG*d[5mC]*dT*dT*dA*dT*kA*kA*kA; antisense) [compound 799209]	14	
799210 (kT*kA*kA*dA*dT*dA*dA*dT*dG*dA*dT*dG*d[5mC]*kT*kT*kA; antisense) [compound 799210]	10	
799211 (kA*k[5mC]*kA*dT*dA*dA*dA*dT*dA*dA*dT*dG*dA*kT*kG*k[5mC]; antisense) [compound 799211]	0	
799212 (kT*kT*kA*dT*dA*d[5mC]*dA*d[5mC]*dA*dT*dT*dG*d[5mC]*kA*k[5mC]*kA; antisense) [compound 799212]	35	
